In PubChem BioAssay (NCI):
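Results reflect a 48-hour exposure of cells in 96-well plates to compound at five concentrations. Here, GI50 denotes the concentration required for 50% inhibition of growth. Definition used: TGI = concentration required for complete inhibition of growth.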

Legend:
Assay in all cases: NCI-60 cell line screen, 48 h
HOP-62 NSCLC = tested on: HOP-62 NSCLC
NCI-H23 lung = tested on: NCI-H23 lung
MALME-3M melanoma = tested on: MALME-3M melanoma
TK-10 renal = tested on: TK-10 renal
LOX IMVI melanoma = tested on: LOX IMVI melanoma
IGROV1 ovarian = tested on: IGROV1 ovarian
MCF7 breast = tested on: MCF7 breast
OVCAR-5 ovarian = tested on: OVCAR-5 ovarian
HOP-92 NSCLC = tested on: HOP-92 NSCLC
OVCAR-4 ovarian = tested on: OVCAR-4 ovarian

SMILES: CCN1C(=O)N(CC)C2C1NN=c1s/c(=C\c3cc4ccccc4[nH]3)c(=O)n12 (stereo not drawn)
- GI50 (HOP-62 NSCLC): 0.0412 µM
- TGI (HOP-62 NSCLC): 18.7 µM
- GI50 (NCI-H23 lung): 0.0445 µM
- TGI (NCI-H23 lung): > 76.9 µM
- GI50 (MALME-3M melanoma): 0.0388 µM
- TGI (MALME-3M melanoma): 36.9 µM
- GI50 (TK-10 renal): 2.11 µM
- TGI (TK-10 renal): 32.3 µM
- GI50 (LOX IMVI melanoma): < 0.01 µM
- TGI (LOX IMVI melanoma): > 100 µM
- GI50 (IGROV1 ovarian): 0.0139 µM
- TGI (IGROV1 ovarian): 12.2 µM
- GI50 (MCF7 breast): < 0.01 µM
- TGI (MCF7 breast): 14.6 µM
- GI50 (OVCAR-5 ovarian): < 0.0128 µM
- TGI (OVCAR-5 ovarian): > 100 µM
- GI50 (HOP-92 NSCLC): 0.0681 µM
- TGI (HOP-92 NSCLC): 6.28 µM
- GI50 (OVCAR-4 ovarian): < 0.0162 µM
- TGI (OVCAR-4 ovarian): > 100 µM

SMILES: CN(C)CC1CCCCCC(CN(C)C)C1=O (stereo not drawn)
- GI50 (HOP-62 NSCLC): 13 µM
- TGI (HOP-62 NSCLC): 27.3 µM
- GI50 (NCI-H23 lung): 8.94 µM
- TGI (NCI-H23 lung): 27 µM
- GI50 (MALME-3M melanoma): 2.19 µM
- TGI (MALME-3M melanoma): 5.01 µM
- GI50 (TK-10 renal): 0.852 µM
- TGI (TK-10 renal): 2.13 µM
- GI50 (LOX IMVI melanoma): 7.68 µM
- TGI (LOX IMVI melanoma): 25 µM
- GI50 (IGROV1 ovarian): 15.1 µM
- TGI (IGROV1 ovarian): 36.3 µM
- GI50 (MCF7 breast): 2.85 µM
- TGI (MCF7 breast): 15.3 µM
- GI50 (OVCAR-5 ovarian): 8.29 µM
- TGI (OVCAR-5 ovarian): 22 µM
- GI50 (HOP-92 NSCLC): 2.69 µM
- TGI (HOP-92 NSCLC): 8.11 µM
- GI50 (OVCAR-4 ovarian): 3.4 µM
- TGI (OVCAR-4 ovarian): 21.7 µM

SMILES: C=C1CCC2C3(C)COC(c4ccccc4Br)OC3CCC2(C)C1C/C=C1/C(=O)OCC1OC(C)=O (stereo not drawn)
- GI50 (HOP-62 NSCLC): 1.94 µM
- TGI (HOP-62 NSCLC): 3.46 µM
- GI50 (NCI-H23 lung): 1.59 µM
- TGI (NCI-H23 lung): 3.17 µM
- GI50 (MALME-3M melanoma): 1.92 µM
- TGI (MALME-3M melanoma): 4.12 µM
- GI50 (TK-10 renal): 1.91 µM
- TGI (TK-10 renal): 3.67 µM
- GI50 (LOX IMVI melanoma): 0.422 µM
- TGI (LOX IMVI melanoma): 0.826 µM
- GI50 (IGROV1 ovarian): 1.15 µM
- TGI (IGROV1 ovarian): 2.48 µM
- GI50 (MCF7 breast): 0.62 µM
- TGI (MCF7 breast): 2 µM
- GI50 (OVCAR-5 ovarian): 1.85 µM
- TGI (OVCAR-5 ovarian): 3.28 µM
- GI50 (HOP-92 NSCLC): 1.36 µM
- TGI (HOP-92 NSCLC): 3.02 µM
- GI50 (OVCAR-4 ovarian): 1.43 µM
- TGI (OVCAR-4 ovarian): 2.83 µM

SMILES: O=C(OCCBr)c1ccc(Cl)c([N+](=O)[O-])c1
- GI50 (HOP-62 NSCLC): 1.91 µM
- TGI (HOP-62 NSCLC): 3.63 µM
- GI50 (NCI-H23 lung): 11.2 µM
- TGI (NCI-H23 lung): 27.2 µM
- GI50 (MALME-3M melanoma): 19.1 µM
- TGI (MALME-3M melanoma): 43.4 µM
- GI50 (TK-10 renal): > 51.1 µM
- TGI (TK-10 renal): > 86.8 µM
- GI50 (LOX IMVI melanoma): 10.2 µM
- TGI (LOX IMVI melanoma): 26 µM
- GI50 (IGROV1 ovarian): 16.5 µM
- TGI (IGROV1 ovarian): 37.6 µM
- GI50 (MCF7 breast): 2.51 µM
- TGI (MCF7 breast): 7.5 µM
- GI50 (OVCAR-5 ovarian): 18 µM
- TGI (OVCAR-5 ovarian): 34.5 µM
- GI50 (HOP-92 NSCLC): 16 µM
- TGI (HOP-92 NSCLC): 33.2 µM
- GI50 (OVCAR-4 ovarian): 10.2 µM
- TGI (OVCAR-4 ovarian): 23 µM

SMILES: COc1cc(C2C3=C(COC3=O)Nc3cc4c(cc32)CCC4)cc2c1OCO2 (stereo not drawn)
- GI50 (HOP-62 NSCLC): 0.0471 µM
- TGI (HOP-62 NSCLC): 12 µM
- GI50 (NCI-H23 lung): 0.0427 µM
- TGI (NCI-H23 lung): 3.04 µM
- GI50 (MALME-3M melanoma): 19.1 µM
- TGI (MALME-3M melanoma): 74.6 µM
- GI50 (TK-10 renal): 10.1 µM
- TGI (TK-10 renal): 32.4 µM
- GI50 (LOX IMVI melanoma): 0.0496 µM
- TGI (LOX IMVI melanoma): 12.1 µM
- GI50 (IGROV1 ovarian): 0.0617 µM
- TGI (IGROV1 ovarian): 17.1 µM
- GI50 (MCF7 breast): 0.0349 µM
- TGI (MCF7 breast): 13.3 µM
- GI50 (OVCAR-5 ovarian): 0.231 µM
- TGI (OVCAR-5 ovarian): 41.7 µM
- GI50 (HOP-92 NSCLC): 12.7 µM
- TGI (HOP-92 NSCLC): 40.5 µM
- GI50 (OVCAR-4 ovarian): 0.0717 µM
- TGI (OVCAR-4 ovarian): 19.8 µM

SMILES: COc1cc(C(=O)/C=C/c2cccnc2Nc2ccccc2)cc(OC)c1OC
- GI50 (HOP-62 NSCLC): 0.657 µM
- TGI (HOP-62 NSCLC): 1.88 µM
- GI50 (NCI-H23 lung): 1.43 µM
- TGI (NCI-H23 lung): 3 µM
- GI50 (MALME-3M melanoma): 1.92 µM
- TGI (MALME-3M melanoma): 3.84 µM
- GI50 (TK-10 renal): 1.82 µM
- TGI (TK-10 renal): 3.33 µM
- GI50 (LOX IMVI melanoma): 0.499 µM
- TGI (LOX IMVI melanoma): 1.82 µM
- GI50 (IGROV1 ovarian): 2.37 µM
- TGI (IGROV1 ovarian): 5.3 µM
- GI50 (MCF7 breast): 0.357 µM
- TGI (MCF7 breast): 1.64 µM
- GI50 (OVCAR-5 ovarian): 1.54 µM
- TGI (OVCAR-5 ovarian): 3.11 µM
- GI50 (HOP-92 NSCLC): 0.392 µM
- TGI (HOP-92 NSCLC): 2.07 µM
- GI50 (OVCAR-4 ovarian): 1.45 µM
- TGI (OVCAR-4 ovarian): 2.76 µM

SMILES: Cc1ccc2c(c1)C(=O)c1c-2n(CCCBr)c(=O)c2cc([N+](=O)[O-])ccc12
- GI50 (HOP-62 NSCLC): 24.4 µM
- TGI (HOP-62 NSCLC): > 100 µM
- GI50 (MALME-3M melanoma): > 100 µM
- TGI (MALME-3M melanoma): > 100 µM
- GI50 (TK-10 renal): > 100 µM
- TGI (TK-10 renal): > 100 µM
- GI50 (LOX IMVI melanoma): 17.9 µM
- TGI (LOX IMVI melanoma): > 100 µM
- GI50 (IGROV1 ovarian): 6.65 µM
- TGI (IGROV1 ovarian): 65.8 µM
- GI50 (MCF7 breast): 4.46 µM
- TGI (MCF7 breast): > 100 µM
- GI50 (OVCAR-5 ovarian): > 100 µM
- TGI (OVCAR-5 ovarian): > 100 µM
- GI50 (HOP-92 NSCLC): 29.4 µM
- TGI (HOP-92 NSCLC): > 100 µM
- GI50 (OVCAR-4 ovarian): > 100 µM
- TGI (OVCAR-4 ovarian): > 100 µM

SMILES: C=CCNC(=O)NCCCC(NC(C)=O)C(=O)NCc1ccccc1 (stereo not drawn)
- TGI (HOP-62 NSCLC): > 100 µM
- TGI (NCI-H23 lung): > 100 µM
- TGI (MALME-3M melanoma): > 100 µM
- TGI (TK-10 renal): > 100 µM
- TGI (LOX IMVI melanoma): > 100 µM
- TGI (IGROV1 ovarian): > 100 µM
- TGI (OVCAR-5 ovarian): > 100 µM
- TGI (HOP-92 NSCLC): > 100 µM
- TGI (OVCAR-4 ovarian): > 100 µM

SMILES: CC(C)N1C(NNC(=O)c2cnccn2)=NS(=O)(=O)c2ccccc21
- GI50 (NCI-H23 lung): > 100 µM
- TGI (NCI-H23 lung): > 100 µM
- GI50 (MALME-3M melanoma): > 100 µM
- TGI (MALME-3M melanoma): > 100 µM
- GI50 (TK-10 renal): > 100 µM
- TGI (TK-10 renal): > 100 µM
- GI50 (LOX IMVI melanoma): > 100 µM
- TGI (LOX IMVI melanoma): > 100 µM
- GI50 (IGROV1 ovarian): > 100 µM
- TGI (IGROV1 ovarian): > 100 µM
- GI50 (MCF7 breast): > 100 µM
- TGI (MCF7 breast): > 100 µM
- GI50 (OVCAR-5 ovarian): > 100 µM
- TGI (OVCAR-5 ovarian): > 100 µM
- GI50 (OVCAR-4 ovarian): > 100 µM
- TGI (OVCAR-4 ovarian): > 100 µM

SMILES: C=C1CCc2occ(C)c2C2C1C1=C(CC(C)C1=O)C1OC12C (stereo not drawn)
- TGI (HOP-62 NSCLC): > 100 µM
- TGI (NCI-H23 lung): > 100 µM
- TGI (MALME-3M melanoma): > 100 µM
- TGI (TK-10 renal): > 100 µM
- TGI (LOX IMVI melanoma): > 100 µM
- TGI (IGROV1 ovarian): > 100 µM
- TGI (OVCAR-5 ovarian): > 100 µM
- TGI (HOP-92 NSCLC): > 100 µM
- TGI (OVCAR-4 ovarian): > 100 µM

SMILES: CCOc1ccccc1/C=N\N=C(\N)N/N=C/c1ccccc1OCC
- GI50 (HOP-62 NSCLC): 5.73 µM
- TGI (HOP-62 NSCLC): > 100 µM
- GI50 (NCI-H23 lung): 5.86 µM
- TGI (NCI-H23 lung): > 100 µM
- GI50 (TK-10 renal): 6.16 µM
- TGI (TK-10 renal): > 100 µM
- GI50 (LOX IMVI melanoma): 4.68 µM
- TGI (LOX IMVI melanoma): > 100 µM
- GI50 (IGROV1 ovarian): 4.76 µM
- TGI (IGROV1 ovarian): > 100 µM
- GI50 (MCF7 breast): 1.01 µM
- TGI (MCF7 breast): > 100 µM
- GI50 (OVCAR-4 ovarian): 3.68 µM
- TGI (OVCAR-4 ovarian): > 100 µM

SMILES: Cc1ccc(Sc2ccc(C)cc2[N+](=O)[O-])c([N+](=O)[O-])c1
- TGI (HOP-62 NSCLC): > 100 µM
- TGI (NCI-H23 lung): > 100 µM
- TGI (MALME-3M melanoma): > 100 µM
- TGI (TK-10 renal): > 100 µM
- TGI (LOX IMVI melanoma): > 100 µM
- TGI (IGROV1 ovarian): > 100 µM
- TGI (OVCAR-5 ovarian): > 100 µM
- TGI (HOP-92 NSCLC): > 100 µM
- TGI (OVCAR-4 ovarian): > 100 µM

SMILES: Cn1cc(-c2ccc(-c3cn(C)c4ccc(Cl)cc34)s2)c2cc(Cl)ccc21
- GI50 (HOP-62 NSCLC): > 100 µM
- TGI (HOP-62 NSCLC): > 100 µM
- GI50 (NCI-H23 lung): > 100 µM
- TGI (NCI-H23 lung): > 100 µM
- GI50 (MALME-3M melanoma): > 100 µM
- TGI (MALME-3M melanoma): > 100 µM
- GI50 (TK-10 renal): > 100 µM
- TGI (TK-10 renal): > 100 µM
- GI50 (LOX IMVI melanoma): > 100 µM
- TGI (LOX IMVI melanoma): > 100 µM
- GI50 (IGROV1 ovarian): > 100 µM
- TGI (IGROV1 ovarian): > 100 µM
- GI50 (MCF7 breast): > 100 µM
- TGI (MCF7 breast): > 100 µM
- GI50 (OVCAR-5 ovarian): > 100 µM
- TGI (OVCAR-5 ovarian): > 100 µM
- GI50 (OVCAR-4 ovarian): > 100 µM
- TGI (OVCAR-4 ovarian): > 100 µM
